According to BigSolDB 2.1:

NC(N)=S
solubility (mole fraction)
Conditions	303.15 K	308.15 K	313.15 K	318.15 K	323.15 K	328.15 K	333.15 K	338.15 K	343.15 K
in acetonitrile	0.00752	0.00805	0.00864	0.00915	0.00972	0.0101	0.0108	0.011	0.0112
in benzene	0.00283	0.00313	0.0034	0.00372	0.00395	0.00436	0.00496	0.00564	0.0065
in chlorobenzene	0.00127	0.00144	0.00157	0.00174	0.00189	0.00211	0.0023	0.00256	0.00277
in ethanol	0.0283	0.0322	0.0354	0.0401	0.0465	0.0531	0.0592	0.0662	0.0751
in ethyl acetate	0.0199	0.021	0.0221	0.023	0.0244	0.0264	0.0286	0.0307	0.0327
in isopropanol	0.0258	0.0286	0.0325	0.0361	0.0408	0.0445	0.049	0.0534	0.0588
in m-xylene	0.0022	0.00249	0.00277	0.00311	0.00342	0.00375	0.00422	0.00485	0.00556
in methanol	0.0605	0.0654	0.0728	0.0804	0.0932	0.106	0.123	–	–
in n-butanol	0.0207	0.0225	0.0248	0.0273	0.0297	0.0332	0.0361	0.0396	–
in n-octanol	0.0211	0.0242	0.028	0.032	0.0354	0.0394	0.0445	0.0488	0.0526
in n-propanol	0.0242	0.0265	0.0292	0.0324	0.036	0.0398	0.0451	0.0499	0.0544
in toluene	0.0025	0.00289	0.00307	0.00336	0.00372	0.00405	0.00452	0.00525	0.0059
